# Assay results taken from ChEMBL document CHEMBL4007399, “Discovery and Synthesis of a Phosphoramidate Prodrug of a Pyrrolo[2,1-f][triazin-4-amino] Adenine C-Nucleoside (GS-5734) for the Treatment of Ebola and Emerging Viruses” (J Med Chem, 2017).
# The source made the active and inactive calls. No cut-off for these calls is given here.
# Tests used:
# [1] = Lipophilicity, log D of the compound after 30 mins by HPLC/UV method; format: physicochemical
# [2] = system: Ebolavirus; assay: Antiviral activity against GFP-fused Ebolavirus infected in TERT-immortalized HMVEC assessed as reduction in viral replication preincubated with cells followed by viral infection measured after 3 to 4 days by fluorescence assay; format: functional; conditions: Orthoebolavirus, HMVEC
# [3] = Cytotoxicity against human MT4 cells assessed as reduction in cell viability after 4 to 5 days by Cell-Titer Glo assay; format: cell-based; conditions: MT4 cells
# [4] = system: Ebolavirus; assay: Antiviral activity against Ebolavirus Kikwit infected in human HeLa cells assessed as reduction in viral glycoprotein levels preincubated with cells for 2 hrs followed by viral infection measured after 48 hrs by immunostaining based assay; format: functional, cell-based; conditions: Orthoebolavirus, Kikwit, HeLa
# [5] = Half life in human plasma at 2 uM by LC/MS/MS analysis; format: ADME, cell-free
# [6] = system: Ebolavirus; assay: Antiviral activity against Ebolavirus Kikwit infected in human macrophages preincubated with cells for 2 hrs followed by viral infection measured after 48 hrs; format: functional; conditions: Orthoebolavirus, Kikwit
# [7] = Cytotoxicity against human HuH7 cells assessed as reduction in cell viability after 3 days by calcein-AM dye based fluorescence assay; design: species or system Huh-7; conditions: Huh-7 cells
# [8] = system: Human orthopneumovirus; assay: Antiviral activity against Respiratory syncytial virus A2 infected in human Hep2 cells assessed as reduction of virus-induced cytopathic effect after 4 days by Cell-Titer Glo assay; format: functional, cell-based; conditions: human respiratory syncytial virus, A2, HEp-2, 96 h
# [9] = Cytotoxicity against human Hep2 cells assessed as reduction in cell viability after 4 to 5 days by Cell-Titer Glo assay; format: cell-based, HEp-2; conditions: HEp-2 cells
# [10] = system: Hepatitis C virus; assay: Antiviral activity against Hepatitis C virus genotype 1b infected in human HuH7 cells preincubated with cells for 3 days followed by viral infection by luciferase assay; format: functional, cell-based, Hepacivirus hominis; conditions: Hepatitis C virus, genotype 1b, Huh-7
# [11] = system: Ebolavirus; assay: Antiviral activity against Ebolavirus in phase-1 acute meningoencephalytis patient assessed as viral clearance in plasma at 150 mg, iv qd administered daily for 2 days followed by 225 mg for 14 days; format: functional, organism-based
# [12] = system: Ebolavirus; assay: Antiviral activity against Ebolavirus infected in rhesus monkey assessed as reduction in systemic viremia at 3 mg/kg, iv qd administered continuously starting from day 2 post infection for 12 days; format: functional, organism-based
# [13] = system: Ebolavirus; assay: Antiviral activity against Ebolavirus in phase-1 acute meningoencephalytis patient assessed as viral clearance in CNS at 150 mg, iv qd administered daily for 2 days followed by 225 mg for 14 days; format: functional, organism-based
# [14] = system: Ebolavirus; assay: Antiviral activity against Ebolavirus infected in rhesus monkey assessed as increase in survival at 10 mg/kg, iv administered daily starting from day 3 post infection followed by 3 mg/kg for 11 days measured up to 28 days; format: functional, organism-based
# [15] = system: Ebolavirus; assay: Antiviral activity against Ebolavirus infected in newborn infant assessed as viral clearance; format: functional
SMILES,logD at 0.5 h [1],EC50 [2] [µM],CC50 [3] [µM],EC50 [4] [µM],half-life at 2 µM [5] [h],EC50 [6] [µM],CC50 at 72 h [7] [µM],EC50 [8] [µM],CC50 [9] [µM],EC50 [10] [µM],Activity [11],Activity [12],Activity [13],Activity [14],Activity [15]
C[C@H](NP(=O)(OC[C@H]1O[C@@](C#N)(c2ccc3c(N)ncnn23)[C@H](O)[C@@H]1O)Oc1ccccc1)C(=O)OC(C)(C)C (stereo not given in full),1.3,3.79,> 100,30.4,26.4,–,–,–,–,–,–,–,–,–,–
C[C@H](NP(=O)(OC[C@H]1O[C@@](C#N)(c2ccc3c(N)ncnn23)[C@H](O)[C@@H]1O)Oc1ccccc1)C(=O)OC1CCCC1 (stereo not given in full),1.3,0.16,8.8,0.633,26.3,0.12,–,–,–,–,–,–,–,–,–
CC(C)OC(=O)[C@H](C)N[P@](=O)(OC[C@H]1O[C@@](C#N)(c2ccc3c(N)ncnn23)[C@](C)(O)[C@@H]1OC(=O)C(C)C)Oc1ccccc1 [GS-6620],–,40,7.8,> 20,–,–,51,> 20,95,0.31,–,–,–,–,–
N#C[C@@]1(n2ccc(N)nc2=O)O[C@H](CO)[C@@H](O)[C@H]1O,–,> 10,> 57,> 50,–,–,> 44,7.3,> 100,12,–,–,–,–,–
CCC(CC)COC(=O)[C@H](C)NP(=O)(OC[C@H]1O[C@@](C#N)(c2ccc3c(N)ncnn23)[C@](C)(O)[C@@H]1O)Oc1ccccc1 (stereo not given in full),–,13,1.4,27,–,–,> 44,> 50,> 50,0.37,–,–,–,–,–
CCC(CC)COC(=O)[C@H](C)N[P@](=O)(OC[C@H]1O[C@@](C#N)(c2ccc3c(N)ncnn23)[C@H](O)[C@@H]1O)Oc1ccccc1,–,–,–,–,–,–,–,–,–,–,Active,Active,Active,Active,Active
CCOC(=O)[C@H](Cc1ccccc1)NP(=O)(OC[C@H]1O[C@@](C#N)(c2ccc3c(N)ncnn23)[C@H](O)[C@@H]1O)Oc1ccccc1 (stereo not given in full),1.6,0.587,15,4.38,26.4,0.27,–,–,–,–,–,–,–,–,–
CC(C)OC(=O)[C@H](C)NP(=O)(OC[C@H]1O[C@@](C#N)(n2ccc(N)nc2=O)[C@H](O)[C@@H]1O)Oc1ccccc1 (stereo not given in full),–,–,53,> 20,–,–,> 44,63,> 100,2.5,–,–,–,–,–
CCC(CC)COC(=O)[C@H](C)N[P@@](=O)(OC[C@H]1O[C@@](C#N)(c2ccc3c(N)ncnn23)[C@H](O)[C@@H]1O)Oc1ccccc1,2,0.053,–,0.08,–,0.111,–,–,–,–,–,–,–,–,–
C[C@H](N[P@](=O)(OC[C@H]1O[C@@](C#N)(c2ccc3c(N)ncnn23)[C@H](O)[C@@H]1O)Oc1ccccc1)C(=O)OCC(C)(C)C,1.7,0.092,3,0.168,11.7,–,–,–,–,–,–,–,–,–,–
CCC(CC)OC(=O)[C@H](C)NP(=O)(OC[C@H]1O[C@@](C#N)(c2ccc3c(N)ncnn23)[C@H](O)[C@@H]1O)Oc1ccccc1 (stereo not given in full),1.6,0.845,> 100,1.81,14.3,–,–,–,–,–,–,–,–,–,–
CCOC(=O)[C@@H](NP(=O)(OC[C@H]1O[C@@](C#N)(c2ccc3c(N)ncnn23)[C@H](O)[C@@H]1O)Oc1ccccc1)C(C)C (stereo not given in full),1.2,3.15,> 100,7.04,26.4,–,–,–,–,–,–,–,–,–,–
C#C[C@@]1(c2ccc3c(N)ncnn23)O[C@H](COP(=O)(N[C@@H](C)C(=O)OCC(CC)CC)Oc2ccccc2)[C@@H](O)[C@H]1O (stereo not given in full),–,3.9,> 32,–,–,–,> 44,1.1,> 100,6.9,–,–,–,–,–
CCOC(=O)[C@H](C)NP(=O)(OC[C@H]1O[C@@](C#N)(c2ccc3c(N)ncnn23)[C@H](O)[C@@H]1O)Oc1ccccc1 (stereo not given in full),0.6,0.636,13,2.43,26.4,–,–,–,–,–,–,–,–,–,–
N#C[C@@]1(c2ccc3c(N)ncnn23)O[C@H](CO)[C@@H](O)[C@H]1F,–,–,32,–,–,–,> 44,> 100,–,> 44,–,–,–,–,–
CCC(CC)COC(=O)[C@@H](C)NP(=O)(OC[C@H]1O[C@@](C#N)(c2ccc3c(N)ncnn23)[C@H](O)[C@@H]1O)Oc1ccccc1 (stereo not given in full),2.1,0.518,42,0.55,26.4,0.729,–,–,–,–,–,–,–,–,–
Nc1ncnn2c([C@@H]3O[C@H](CO)[C@@H](O)[C@H]3O)ccc12,–,–,< 0.01,–,–,–,0.15,–,0.038,0.0035,–,–,–,–,–
CC(C)OC(=O)[C@H](C)N[P@@](=O)(OC[C@H]1O[C@@](C#N)(c2ccc3c(N)ncnn23)[C@H](O)[C@@H]1O)Oc1ccccc1,1.1,0.367,21,1.84,26,0.297,–,–,–,–,–,–,–,–,–
C[C@@]1(O)[C@H](O)[C@@H](CO)O[C@@]1(C#N)c1ccc2c(N)ncnn12,–,> 10,> 57,50,–,–,> 44,> 100,> 100,> 44,–,–,–,–,–
CCOC(=O)[C@H](C)NP(=O)(N[C@@H](C)C(=O)OCC)OC[C@H]1O[C@@](C#N)(c2ccc3c(N)ncnn23)[C@H](O)[C@@H]1O,< 0.3,9.1,> 53,20.4,–,–,–,–,–,–,–,–,–,–,–
C[C@H](NP(=O)(OC[C@H]1O[C@@](C#N)(c2ccc3c(N)ncnn23)[C@H](O)[C@@H]1O)Oc1ccccc1)C(=O)OC1CCC1 (stereo not given in full),1.1,0.088,6,0.42,13.6,–,–,–,–,–,–,–,–,–,–
N#C[C@@]1(c2ccc3c(N)ncnn23)O[C@H](CO)[C@@H](O)[C@H]1O [GS-441524],0.3,0.78,> 57,> 20,–,> 20,> 88,0.53,> 100,–,–,–,–,–,–
C#C[C@@]1(c2ccc3c(N)ncnn23)O[C@H](CO)[C@@H](O)[C@H]1O,–,–,120,–,–,–,> 88,> 200,> 200,> 88,–,–,–,–,–
N#C[C@@]1(n2cnc3c(N)ncnc32)O[C@H](CO)[C@@H](O)[C@H]1O,–,56,> 53,–,–,–,> 88,> 100,> 100,> 44,–,–,–,–,–
C[C@@]1(c2ccc3c(N)ncnn23)O[C@H](CO)[C@@H](O)[C@H]1O,–,> 10,4.5,–,–,–,62,5.5,93,38,–,–,–,–,–
